Reference: paper PMC6920875, “Dithiocarbamate as a Valuable Scaffold for the Inhibition of Metallo-β-Lactmases” (Biomolecules, 2019)

Tests used:
[1] = biological target: T1, NDM-1 (Klebsiella pneumoniae, UniProt C7C422); test: Time-dependence inhibition experiment, residual activity; format: biochemical; details: 13 nM NDM-1 incubated with inhibitor at its IC50 for 8 h
T1 construct: made in house; host or cells: E. coli BL21 (DE3), plasmid pET26b-NDM-1

[2] = biological target: T2, ImiS (Aeromonas veronii, UniProt O31272); test: Isothermal titration calorimetry (ITC) of MβL-catalysed substrate hydrolysis; format: biochemical, Aeromonas veronii bv. sobria; details: 100 nM enzyme, 1 mM imipenem, inhibitor 0-200 μM, 25 °C
T2 construct: made in house; host or cells: E. coli BL21 (DE3), plasmid pET-26b-ImiS
T2 sequence (O31272 28-255 limits assumed): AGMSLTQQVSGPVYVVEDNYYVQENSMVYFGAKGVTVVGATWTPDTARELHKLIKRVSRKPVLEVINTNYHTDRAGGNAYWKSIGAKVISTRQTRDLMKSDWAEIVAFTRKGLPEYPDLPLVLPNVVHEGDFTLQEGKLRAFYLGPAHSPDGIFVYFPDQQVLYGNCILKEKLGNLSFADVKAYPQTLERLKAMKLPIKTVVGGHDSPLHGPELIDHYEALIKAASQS
Protocol: Isothermal titration calorimetry (ITC) assays were performed on a Malvern MicroCal iTC 200 instrument (Malvern Instruments, Malvern, UK) at 25 °C, by a single injection mode. During ITC experiments the reference cell was filled with degassed water. The MβLs, substrates, and inhibitor DC1 were prepared with 50 mM Tris, pH 7.0. The concentration of MβLs used was in the range 100–200 nM, concentration of substrate was 1 mM, and concentrations of DC1 were varied between 0 and 200 µM. Before starting the measurement, the enzyme was pre-incubated with different concentrations of DC1 for 5 min, and then delivered into the sample cell (210 µL). The hydrolysis reaction in the absence of inhibitors was also determined as a control. The stirring rate of the syringe was set to 750 rpm. The system was equilibrated at the desired 25 °C. […] Heat flow was recorded as a function of time. Data were collected every 1 s until the signal reached the baseline and continued to be recorded for the length of time necessary to generate the final baseline.
Isothermal titration calorimetry (ITC) was also employed, to identify the inhibition of the dithiocarbamates on MβLs and study their thermodynamic behaviour. […]

[3] = biological target: T1, NDM-1; test: Inhibitor reversibility, activity recovery after rapid 100-fold dilution; format: biochemical; details: 1.3 μM enzyme, 10 min pre-incubation
Protocol: (§1) It can be observed in Figure 4d–f that the Q value remains almost unchanged in the presence or absence of inhibitors, likely because the formation of the enzyme-inhibitor complex (EI), that slowed down substrate hydrolysis, was reversible. […] We assayed the binding reversibility of DC1 to MβLs by measuring the enzymatic activity recovery after a large, rapid dilution of the MβL-DC1 complex.
(§2) Determination of inhibitor reversibility
(§3) NDM-1, ImiS and L1 were incubated at a concentration of 1.3, 5.0 and 5.8 μM, which is 100-fold over the concentration required for the activity assay, with DC1 at a concentration of 1.5, 0.7 and […]
(§4) After 10 minutes pre-incubation, the recovery of enzymatic activity was determined after rapid and large dilution (100-fold) with the reaction […]
(§5) Figure S2. Recovery of NDM-1 (a), ImiS (b) and L1 (c) activity after rapid dilution of the enzyme-inhibitor complex. The curve in black refers to the control sample pre-incubated and diluted in the absence of inhibitor. Curves in red refer to MβLs pre-incubated with DC1. […]

[4] = biological target: T3, L1 (Stenotrophomonas maltophilia, UniProt P52700); test: as above; format: biochemical; details: 5.8 μM enzyme, 25.3 μM inhibitor, 10 min pre-incubation
T3 construct: made in house; host or cells: E. coli BL21 (DE3), plasmid pET-26b-L1
T3 sequence (P52700 34-290): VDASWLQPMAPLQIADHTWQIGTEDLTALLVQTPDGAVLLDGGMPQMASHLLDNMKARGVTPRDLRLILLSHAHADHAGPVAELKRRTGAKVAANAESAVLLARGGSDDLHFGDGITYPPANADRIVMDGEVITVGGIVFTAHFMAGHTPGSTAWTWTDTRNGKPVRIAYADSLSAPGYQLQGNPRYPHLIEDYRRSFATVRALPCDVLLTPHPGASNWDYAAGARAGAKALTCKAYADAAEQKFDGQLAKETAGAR
Protocol: as §1, §2, §3, §4, §5

[5] = biological target: T2, ImiS; test: biochemical; design: species or system Aeromonas veronii bv. sobria; details: read-out: inhibition against ImiS
Protocol: The dithiocarbamates, MβLs and substrates samples were prepared with 30 mM Tris, pH 7.0. […] Enzymes and inhibitors were pre-incubated for 5 min before adding substrate. […] The IC50 values were nonlinearly fitted by plotting the average percentage inhibition against inhibitor concentration. The inhibition modes of DC1 to ImiS, NDM-1 and L1 were assayed by generating Lineweaver–Burk plots, and Ki values were obtained by fitting initial velocity versus substrate concentration at each inhibitor concentration, using SigmaPlot 12.0 (Systat Software Inc., San Jose, CA, USA).
To evaluate the inhibitory activity of the dithiocarbamates, we over-expressed and purified MβLs NDM-1, VIM-2 and IMP-1 (B1), ImiS (B2), and L1 (B3) from three subclasses as previously reported. The inhibition experiments were performed with an Agilent UV8453 spectrometer. […] The concentrations of inhibitors were varied between 0 and 200 μM. The initial reaction rates were determined in the absence and presence of inhibitors in triplicate, and the generated average values were recorded.

[6] = system: mouse fibroblast cells (L-929); test: Cytotoxicity assay (MTT); format: cell-based; details: concentration as high as 250 μM, 48 h
Protocol: The cytotoxicity assays were performed to evaluate the toxicity of DC1, DC3, DC7 and DC9 in mouse fibroblast cells (L-929). The cells were seeded into 96-well plates at a cell density of 1.0 × 10^4 cells/well, in 100 μL of culture medium and maintained for 24 h. Then, the inhibitors with working concentrations (15.6, 31.25, 62.5, 125, 250, and 500 μM) were added to the 96-well plates and incubated for another 48 h. Three wells containing only cells were suspended in a mixture solution of 98 μL complete medium, as controls for cell viability without inhibitors. Three wells containing only the complete medium were used as blank controls. Following that, the medium was removed, and 100 μL of fresh culture medium and 10 μL MTT were added to each well. After incubation for 4 h, the trays were then vigorously shaken to solubilize the formed product, and the absorbance, at a wavelength of 490 nm, was read on a microplate reader and analyzed. All experiments were conducted in triplicate, and the data are expressed as mean ± standard deviation.
The potential toxicity of dthiocarbamates DC1, DC3, DC7 and DC9 as representatives was assayed using the mouse fibroblast cells (L929) treated with different concentrations of inhibitors (15.625, 31.25, 62.5, 125, 250 and 500 μM).

T1 sequence (C7C422 29-270 limits assumed): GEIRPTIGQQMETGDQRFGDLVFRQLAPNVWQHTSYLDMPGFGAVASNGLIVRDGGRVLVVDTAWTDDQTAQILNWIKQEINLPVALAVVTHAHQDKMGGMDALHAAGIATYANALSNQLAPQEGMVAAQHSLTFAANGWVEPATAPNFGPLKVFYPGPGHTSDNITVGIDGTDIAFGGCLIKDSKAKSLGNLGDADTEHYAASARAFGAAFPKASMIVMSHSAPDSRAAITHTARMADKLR

O=C(NNC(=S)[S][K])c1ccccc1O [DC1]
time dependence of NDM-1 inhibition (residual activity) [1]: no time-dependent inhibition
reversibility of inhibition of ImiS by ITC (total heat Q constant) [2]: reversible
reversibility, recovery of NDM-1 activity after rapid dilution [3]: reversible inhibitor
reversibility, recovery of L1 activity after rapid dilution [4]: reversible inhibitor
inhibition at 40 µM [5]: > 90%
survival rate of L929 mouse cells [6]: higher than 80%
